Laboratory results as given in patent US6825172B2, “3-descladinosyl-6-O-carbamoyl and 6-O-carbonoyl macrolide antibacterial agents” (Janssen Pharmaceutica, NV, priority 2002, dated 2004).
Values after ≈ are worked out from the molar mass of the structure shown.

What was measured:
Experiment in all cases: MIC, microdilution broth method (NCCLS)
Format in all cases: cell-based
[1] = system: S. pneumoniae ATCC49619; details: Streptococcus pneumoniae, Table 1, 6-Carbamoyl-3-Acyl Macrolide Derivatives, read-out: MIC Values, D: S. pneumoniae ATCC49619
Summary of the method: (§1)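 NCCLS M7-A4 broth microdilution: two-fold drug dilutions in cation-adjusted Mueller-Hinton broth, inoculum approximately 5×10^4 CFU/well. Trays incubated at 35 °C for 16-20 hours. MIC read by comparing growth to compound-free growth controls.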

[2] = system: E. coli OC2605; details: Escherichia coli, Table 1, 6-Carbamoyl-3-Acyl Macrolide Derivatives, read-out: MIC Values, A: E. coli OC2605
Summary of the method: as §1

[3] = system: E. faecalis ATCC29212; details: Enterococcus faecalis, Table 1, 6-Carbamoyl-3-Acyl Macrolide Derivatives, read-out: MIC Values, C: E. faecalis ATCC29212
Summary of the method: as §1

[4] = system: S. aureus ATCC29213; details: Staphylococcus aureus, Table 1, 6-Carbamoyl-3-Acyl Macrolide Derivatives, read-out: MIC Values, B: S. aureus ATCC29213
Summary of the method: as §1

[5] = system: H. influenzae ATCC49247; details: Haemophilus influenzae, Table 1, 6-Carbamoyl-3-Acyl Macrolide Derivatives, read-out: MIC Values, E: H. influenzae ATCC49247
Summary of the method: as §1

SMILES	MIC [1] [µg/mL]	MIC [2] [µg/mL]	MIC [3] [µg/mL]	MIC [4] [µg/mL]	MIC [5] [µg/mL]
CC[C@H]1OC(=O)[C@H](C)[C@@H](OC(=O)C(C)C)[C@H](C)[C@@H](O[C@@H]2O[C@H](C)C[C@H](N(C)C)[C@H]2O)[C@](C)(OC(=O)NC/C=C/C=C/c2ccccn2)C[C@@H](C)C(=O)[C@H](C)[C@H]2NC(=O)O[C@@]21C [Compound 26]	0.06 (≈ 0.07 µM)	16 (≈ 18.7 µM)	0.25 (≈ 0.292 µM)	1 (≈ 1.17 µM)	2 (≈ 2.33 µM)
CC[C@H]1OC(=O)[C@H](C)[C@@H](OC(=O)C(C)C)[C@H](C)[C@@H](O[C@@H]2O[C@H](C)C[C@H](N(C)C)[C@H]2O)[C@](C)(OC(=O)NC/C=C/c2ccnc3ccccc23)C[C@@H](C)C(=O)[C@H](C)[C@H]2NC(=O)O[C@@]21C [Compound 33]	0.03 (≈ 0.034 µM)	16 (≈ 18.2 µM)	0.25 (≈ 0.284 µM)	0.5 (≈ 0.567 µM)	2 (≈ 2.27 µM)
CC[C@H]1OC(=O)[C@H](C)[C@@H](OC(=O)Cc2cccnc2)[C@H](C)[C@@H](O[C@@H]2O[C@H](C)C[C@H](N(C)C)[C@H]2O)[C@](C)(OC(=O)NC/C=C/c2ccnc3ccccc23)C[C@@H](C)C(=O)[C@H](C)[C@H]2NC(=O)O[C@@]21C [Compound 34]	0.03 (≈ 0.0323 µM)	8 (≈ 8.6 µM)	0.25 (≈ 0.269 µM)	0.5 (≈ 0.538 µM)	2 (≈ 2.15 µM)
CC[C@H]1OC(=O)[C@H](C)[C@@H](OC(=O)Cc2cccnc2)[C@H](C)[C@@H](O[C@@H]2O[C@H](C)C[C@H](N(C)C)[C@H]2O)[C@](C)(OC(=O)NC/C=C/c2ccc(C(F)(F)F)nc2)C[C@@H](C)C(=O)[C@H](C)[C@H]2NC(=O)O[C@@]21C [Compound 36]	0.06 (≈ 0.0633 µM)	16 (≈ 16.9 µM)	0.25 (≈ 0.264 µM)	1 (≈ 1.05 µM)	4 (≈ 4.22 µM)

Results, then the compound that gave them:

MIC [1] [µg/mL]	MIC [2] [µg/mL]	MIC [3] [µg/mL]	MIC [4] [µg/mL]	MIC [5] [µg/mL]	SMILES
0.03 (≈ 0.0331 µM)	8 (≈ 8.83 µM)	0.25 (≈ 0.276 µM)	0.5 (≈ 0.552 µM)	1 (≈ 1.1 µM)	CC[C@H]1OC(=O)[C@H](C)[C@@H](OC(=O)Cc2cccnc2)[C@H](C)[C@@H](O[C@@H]2O[C@H](C)C[C@H](N(C)C)[C@H]2O)[C@](C)(OC(=O)NC/C=C/C=C/c2ccccn2)C[C@@H](C)C(=O)[C@H](C)[C@H]2NC(=O)O[C@@]21C [Compound 27]
< 0.015	8 (≈ 8.34 µM)	0.25 (≈ 0.261 µM)	0.5 (≈ 0.521 µM)	1 (≈ 1.04 µM)	CC[C@H]1OC(=O)[C@H](C)[C@@H](OC(=O)Cc2cccnc2)[C@H](C)[C@@H](O[C@@H]2O[C@H](C)C[C@H](N(C)C)[C@H]2O)[C@](C)(OC(=O)NC/C=C/c2ccc(Br)nc2)C[C@@H](C)C(=O)[C@H](C)[C@H]2NC(=O)O[C@@]21C [Compound 28]
0.03 (≈ 0.0331 µM)	16 (≈ 17.7 µM)	0.25 (≈ 0.276 µM)	0.5 (≈ 0.552 µM)	2 (≈ 2.21 µM)	CC[C@H]1OC(=O)[C@H](C)[C@@H](OC(=O)Cc2ccccn2)[C@H](C)[C@@H](O[C@@H]2O[C@H](C)C[C@H](N(C)C)[C@H]2O)[C@](C)(OC(=O)NC/C=C/c2ccc(C#N)nc2)C[C@@H](C)C(=O)[C@H](C)[C@H]2NC(=O)O[C@@]21C [Compound 29]
0.03 (≈ 0.0323 µM)	16 (≈ 17.2 µM)	0.5 (≈ 0.538 µM)	1 (≈ 1.08 µM)	4 (≈ 4.3 µM)	CC[C@H]1OC(=O)[C@H](C)[C@@H](OC(=O)Cc2cccnc2)[C@H](C)[C@@H](O[C@@H]2O[C@H](C)C[C@H](N(C)C)[C@H]2O)[C@](C)(OC(=O)NC/C=C/c2cnc3ccccc3c2)C[C@@H](C)C(=O)[C@H](C)[C@H]2NC(=O)O[C@@]21C [Compound 30]
0.03 (≈ 0.034 µM)	8 (≈ 9.08 µM)	0.25 (≈ 0.284 µM)	0.5 (≈ 0.567 µM)	4 (≈ 4.54 µM)	CC[C@H]1OC(=O)[C@H](C)[C@@H](OC(=O)C(C)C)[C@H](C)[C@@H](O[C@@H]2O[C@H](C)C[C@H](N(C)C)[C@H]2O)[C@](C)(OC(=O)NC/C=C/c2cnc3ccccc3c2)C[C@@H](C)C(=O)[C@H](C)[C@H]2NC(=O)O[C@@]21C [Compound 31, Propanoic acid, 2-methyl-, (3aS,4R,7R,8S,9S,10R,11R,13R,15R,15aR)-4-ethyltetradecahydro-3a,7,9,11,13,15-hexamethyl-2,6,14-trioxo-11-[[[[(2E)-3-(3-quinolinyl)-2-propenyl]amino]carbonyl]oxy]-10-[[3,4,6-trideoxy-3-(dimethylamino)-β-D-xylo-hexopyranosyl]oxy]-2H-oxacyclotetradecino[4,3-d]oxazol-8-yl ester]
0.03 (≈ 0.0323 µM)	8 (≈ 8.6 µM)	0.25 (≈ 0.269 µM)	0.5 (≈ 0.538 µM)	2 (≈ 2.15 µM)	CC[C@H]1OC(=O)[C@H](C)[C@@H](OC(=O)Cc2ccccn2)[C@H](C)[C@@H](O[C@@H]2O[C@H](C)C[C@H](N(C)C)[C@H]2O)[C@](C)(OC(=O)NC/C=C/c2cnc3ccccc3c2)C[C@@H](C)C(=O)[C@H](C)[C@H]2NC(=O)O[C@@]21C [Compound 32]
